Source: patent publication US9856298B2 (priority 2011, dated 2018)
Converted amounts (≈) assume the structure as drawn. Like-named read-outs stand apart in the source and are kept apart here. Numbered stars: 1 amine (or outer) side, 2 acyl side, 3 side chain; on linkers, the order of the positions; unused ones are H or OH. Square brackets hold non-standard residues; d marks the D form. Primed or numbered codes have the meaning given here. Side chains are listed from the residue outwards. Peptide text beside a SMILES is read from it. * marks the point of attachment. Orn(α-tetramethylguanidino) = CN(C)C(=N[C@@H](CCCN)C(=O)*)N(C)C; δOrn(α-TMG) = CN(C)C(=N[C@@H](CCCN[*:1])C(=O)[*:2])N(C)C; Guan″ = guanidino group at the N-terminus, N=C(N)*; sPEG750 = PEG of 750 linked via acid group; Guan = N-guanidino (N-terminal), N=C(N)*; Hyp = O=C(O)[C@@H]1C[C@@H](O)CN1; Tle = CC(C)(C)[C@H](N)C(=O)O; Orn = NCCC[C@H](N)C(=O)O

Experiments:
[1] = test system: Escherichia coli strain BL21AI; test: Minimum inhibitory concentration in 1% TSB; assay type: cell-based; conditions: for MIC in TSB: E. coli BL21AI, 1% TSB, 20 hours at 37° C.; for Effect of peptide linker or remaining linker residues on the MIC: compared with the unmodified peptide
Protocol: (§1) To that end, the peptides were dissolved in water and diluted in a two-fold dilution series with 1% aqueous soybean medium (TSB) in sterile 96-well plates (Greiner Bio-One GmbH) from 128 μg/ml in twelve dilution steps to 62.5 ng/ml. Overnight cultures of Escherichia coli strain BL21AI were adjusted with 1% TSB to about […] colony forming units per ml. In each case 50 μl of peptide solution per well were then mixed with in each case 50 μl of the bacteria solution, in order to achieve a starting concentration of 4×10^5 bacteria per well. After incubation for 20 hours at 37° C., the absorption at 595 nm was determined (microplate reader, TECAN Trading AG).

[2] = Serum stability / release of peptide in 25% aqueous mouse serum (RP-HPLC, MALDI-MS); conditions: 25% (v/v) aqueous mouse serum
Protocol: (§2) 30 μl of a 1 mg/ml peptide solution were diluted with 120 μl of water and, after addition of 50 of serum, incubated at 37° C. for 0 hours, 0.5 hour, 1 hour, 2 hours or 4 hours. Alternatively, the peptide derivatives having a starting concentration of 3 mg/ml were diluted with serum to a final concentration of 15 μg/ml. According to the stability of the peptides, the samples were analysed at the times mentioned above or after 0 hours, 4 hours and 6 hours. The serum proteins were precipitated by addition of 50 μl of 15% TCA, and the supernatant was neutralised with 25 μl of 1 mol/l NaOH. The samples were made up to 250 μl with 5% B, 230 μl of the solution were transferred into a HPLC vial, and 220 μl were injected.
(§3) RP-HPLC analysis was carried out with a linear acetonitrile gradient (Biosolve BV, Valkenswaard, Netherlands) in the presence of 0.1% trifluoroacetic acid (TFA, UV grade, Fluka Chemie GmbH, Buchs, Switzerland) as ion-pair reagent. The fractions were co-crystallised with α-cyanohydroxycinnamic acid (Bruker Daltonik GmbH; Bremen, Germany) as matrix (4 mg/ml in 60% acetonitrile in 0.1% aqueous TFA) and analysed with a tandem mass spectrometer (MALDI-TOF/TOF-MS, 4700 Proteomics Analyzer; Applied Biosystems GmbH, Weiterstadt, Germany) in positive-ion reflector mode. The amount of intact peptides and their degradation products or metabolites could thus be identified and quantified at the individual times. 25% aqueous mouse serum, which was analysed in parallel for the same time intervals, was used as control.

[3] = test system: Escherichia coli strain BL21AI; test: Minimum inhibitory concentration in TSB in the presence of 25% mouse serum; assay type: cell-based; conditions: E. coli BL21AI, TSB with 25% mouse serum, 20 hours at 37° C.
Protocol: as §1
In addition, the antibacterial activity was also determined in the presence of 25% mouse serum. To that end, the MIC values were determined as described above, but 25 μl of mouse serum were also added to each well before the incubation (25% final concentration).

[4] = Serum stability / release of peptide in pure mouse serum (100%) (RP-HPLC, MALDI-MS)
Protocol: as §2, §3

25% aqueous mouse serum = conditions: 37° C., up to 6 hours
[5] = mouse; for uncleaved peptide remaining after the indicated time (instead of half-life): serum, 6 h, 15 µg/ml
Protocol: as §2, §3

Molecule	MIC in TSB [1] [µM]	MIC in TSB/mouse serum [3] [µM]	further results
CC[C@H](C)[C@H](NC(=O)[C@H](Cc1ccc(O)cc1)NC(=O)[C@@H](NC(=O)[C@@H]1CCCN1C(=O)[C@H](CCCNC(=N)N)NC(=O)[C@H](CC(N)=O)NC(=O)[C@H](CC(N)=O)NC(=O)[C@H](CCCNC(=O)CNC(=O)[C@H](CO)NC(=O)[C@H](CCCNC(=N)N)NC(=O)[C@H](C)NC(=O)CN)N=C(N(C)C)N(C)C)C(C)C)C(=O)N1CCC[C@H]1C(=O)N[C@@H](CCCNC(=N)N)C(=O)N1CCC[C@H]1C(=O)N[C@@H](CCCNC(=N)N)C(=O)N1CCC[C@H]1C(=O)N1CCC[C@H]1C(=O)N[C@@H](Cc1c[nH]cn1)C(=O)N1CCC[C@H]1C(=O)N[C@@H](CCCNC(=N)N)C(=O)N[C@@H](CC(C)C)C(=O)O [Api 137 (GARSG)] (H-GARSG[δOrn(α-TMG)]NNRPVYIPRPRPPHPRL-OH)	0.9 (≈ 2.45 µg/mL)		half-life at 150 µg/ml [2]: 30 min
CC[C@H](C)[C@H](NC(=O)[C@H](Cc1ccc(O)cc1)NC(=O)[C@@H](NC(=O)[C@@H]1CCCN1C(=O)[C@H](CCCNC(=N)N)NC(=O)[C@H](CC(N)=O)NC(=O)[C@H](CC(N)=O)NC(=O)[C@H](CCCNC(=O)CNC(=O)[C@H](CO)NC(=O)[C@H](CCCNC(=N)N)NC(=O)CN)N=C(N(C)C)N(C)C)C(C)C)C(=O)N1CCC[C@H]1C(=O)N[C@@H](CCCNC(=N)N)C(=O)N1CCC[C@H]1C(=O)N[C@@H](CCCNC(=N)N)C(=O)N1CCC[C@H]1C(=O)N1CCC[C@H]1C(=O)N[C@@H](Cc1c[nH]cn1)C(=O)N1CCC[C@H]1C(=O)N[C@@H](CCCNC(=N)N)C(=O)N[C@@H](CC(C)C)C(=O)O [Api 137 (GRSG)] (H-GRSG[δOrn(α-TMG)]NNRPVYIPRPRPPHPRL-OH)	0.7 (≈ 1.85 µg/mL)		half-life at 150 µg/ml [2]: 60 min
CC[C@H](C)[C@H](NC(=O)[C@H](Cc1ccc(O)cc1)NC(=O)[C@@H](NC(=O)[C@@H]1CCCN1C(=O)[C@H](CCCNC(=N)N)NC(=O)[C@H](CC(N)=O)NC(=O)[C@H](CCCNC(=O)CNC(=O)[C@@H](N)CO)NC(=O)[C@H](CCCN)N=C(N(C)C)N(C)C)C(C)C)C(=O)N1CCC[C@H]1C(=O)N[C@@H](CCCNC(=N)N)C(=O)N1CCC[C@H]1C(=O)N[C@@H](CCCNC(=N)N)C(=O)N1CCC[C@H]1C(=O)N1CCC[C@H]1C(=O)N[C@@H](Cc1c[nH]cn1)C(=O)N1CCC[C@H]1C(=O)N[C@@H](CCCNC(=N)N)C(=O)N[C@@H](CC(C)C)C(=O)O [Api 300 (SG)] ({Orn(α-tetramethylguanidino)}-[Orn]([Gly-Ser])NRPVYIPRPRPPHPRL-OH)	0.8 (≈ 1.95 µg/mL)	0.21	Effect of peptide linker or remaining linker residues on the MIC [1]: does not increase the MIC or increases it only insignificantly; half-life at 15 µg/ml ([4]; mouse, pure (100%) mouse serum): 240 min
CC[C@H](C)[C@H](NC(=O)[C@H](Cc1ccc(O)cc1)NC(=O)[C@@H](NC(=O)[C@@H]1CCCN1C(=O)[C@H](CCCNC(=N)N)NC(=O)[C@H](CCCNC(=O)CNC(=O)[C@@H](N)CO)NC(=O)[C@H](CC(N)=O)NC(=O)[C@H](CCCN)N=C(N(C)C)N(C)C)C(C)C)C(=O)N1CCC[C@H]1C(=O)N[C@@H](CCCNC(=N)N)C(=O)N1CCC[C@H]1C(=O)N[C@@H](CCCNC(=N)N)C(=O)N1CCC[C@H]1C(=O)N1CCC[C@H]1C(=O)N[C@@H](Cc1c[nH]cn1)C(=O)N1CCC[C@H]1C(=O)N[C@@H](CCCNC(=N)N)C(=O)N[C@@H](CC(C)C)C(=O)O [Api 301 (SG)] ({Orn(α-tetramethylguanidino)}-N[Orn]([Gly-Ser])RPVYIPRPRPPHPRL-OH)	1.6 (≈ 3.9 µg/mL)		Effect of peptide linker or remaining linker residues on the MIC [1]: does not increase the MIC or increases it only insignificantly; remaining at 4 h, 15 µg/ml ([4]; mouse, pure (100%) mouse serum): 60%
CC[C@H](C)[C@H](NC(=O)[C@H](CCCN)NC(=O)[C@H](CCCNC(=N)N)NC(=O)[C@@H]1CCCN1C(=O)[C@@H]1CCCN1C(=O)[C@H](CCCNC(=N)N)NC(=O)[C@@H]1CCCN1C(=O)[C@H](CCCNC(=N)N)NC(=O)[C@@H]1CCCN1C(=O)[C@H](CC(C)C)NC(=O)[C@H](Cc1ccc(O)cc1)NC(=O)[C@@H]1CCCN1C(=O)[C@@H]1CCCN1C(=O)[C@H](CCCCN)NC(=O)[C@H](CC(=O)O)NC(=O)[C@@H](NC(=O)[C@H](CCCNC(=N)N)NC(=O)[C@H](C)NC(=O)CN)C(C)C)C(=O)N[C@@H](Cc1ccc(O)cc1)C(=O)N[C@@H](CC(N)=O)C(=O)N[C@@H](CCCN)C(N)=O [GAR-Onc 72, GAR-VDKPPYLPRPRPPROIYNO-NH2] (H-GARVDKPPYLPRPRPPR[Orn]IYN[Orn]-NH2)	3.1 (≈ 8.03 µg/mL)		Effect of peptide linker or remaining linker residues on the MIC [1]: does not increase the MIC or increases it only insignificantly; remaining at 4 h, 15 µg/ml ([4]; mouse, pure (100%) mouse serum): 85%
CC(C)C[C@H](NC(=O)[C@H](Cc1ccc(O)cc1)NC(=O)[C@@H]1CCCN1C(=O)[C@@H]1CCCN1C(=O)[C@H](CCCCN)NC(=O)[C@H](CC(=O)O)NC(=O)[C@@H](NC(=O)[C@H](CCCNC(=N)N)NC(=O)[C@H](C)NC(=O)CN)C(C)C)C(=O)N1CCC[C@H]1C(=O)N[C@@H](CCCNC(=N)N)C(=O)N1CCC[C@H]1C(=O)N[C@@H](CCCNC(=N)N)C(=O)N1CCC[C@H]1C(=O)N1C[C@H](O)C[C@H]1C(=O)N[C@@H](CCCNC(=N)N)C(=O)N1C[C@H](O)C[C@H]1C(=O)N[C@H](C(=O)N[C@@H](Cc1ccc(O)cc1)C(=O)N[C@@H](CC(N)=O)C(=O)N[C@@H](CCCN)C(N)=O)C(C)(C)C [GAR-Onc 110] (H-GARVDKPPYLPRPRP[Hyp]R[Hyp][Tle]YN[Orn]-NH2)	1.5 (≈ 3.91 µg/mL)	0.65	Effect of peptide linker or remaining linker residues on the MIC [1]: does not increase the MIC or increases it only insignificantly; remaining at 4 h, 15 µg/ml ([4]; mouse, pure (100%) mouse serum): 75%
Guan-O(GARSG)NNRPVYIPRPRPPHPRL-OH (H-GARSG[δOrn(α-TMG)]NNRPVYIPRPRPPHPRL-OH; SMILES CC[C@H](C)[C@H](NC(=O)[C@H](Cc1ccc(O)cc1)NC(=O)[C@@H](NC(=O)[C@@H]1CCCN1C(=O)[C@H](CCCNC(=N)N)NC(=O)[C@H](CC(N)=O)NC(=O)[C@H](CC(N)=O)NC(=O)[C@H](CCCNC(=O)CNC(=O)[C@H](CO)NC(=O)[C@H](CCCNC(=N)N)NC(=O)[C@H](C)NC(=O)CN)N=C(N(C)C)N(C)C)C(C)C)C(=O)N1CCC[C@H]1C(=O)N[C@@H](CCCNC(=N)N)C(=O)N1CCC[C@H]1C(=O)N[C@@H](CCCNC(=N)N)C(=O)N1CCC[C@H]1C(=O)N1CCC[C@H]1C(=O)N[C@@H](Cc1c[nH]cn1)C(=O)N1CCC[C@H]1C(=O)N[C@@H](CCCNC(=N)N)C(=O)N[C@@H](CC(C)C)C(=O)O)			cleaved bond (25% aqueous mouse serum): R-S
Guan-O(sPEG^750-GARSG)NNRPVYIPRPRPPHPRL-OH			cleaved bond (25% aqueous mouse serum): R-S
Guan-O(sPEG^750-GRSG)NNRPVYIPRPRPPHPRL-OH			cleaved bond (25% aqueous mouse serum): R-S
Guan-ONO(sPEG^750-GARSG)RPVYIPRPRPPHPRL-OH ({Guan″}-[Orn]N[Orn]RPVYIPRPRPPHPRL-OH; not fully specified (residue 3)) [Api 301 (sPEG^750-GARSG)]	2.9	0.27	Half-life (t1/2) in serum [5]: 45 min
Guan-OO(sPEG^750-GARSG)NRPVYIPRPRPPHPRL-OH (Guan-[Orn][Orn]NRPVYIPRPRPPHPRL-OH; not fully specified (residue 2)) [Api 300 (sPEG^750-GARSG)]	2.9	0.54	Half-life (t1/2) in serum [5]: 35 min
Guan-OO(sPEG^750-GRSG)NRPVYIPRPRPPHPRL-OH (Guan-[Orn][Orn]NRPVYIPRPRPPHPRL-OH; not fully specified (residue 2)) [Api 300 (sPEG^750-GRSG)]	2.9	0.37	Half-life (t1/2) in serum [5]: 50 min
Guan-OO(tPEG^5000-GARSG)NRPVYIPRPRPPHPRL-OH (Guan-[Orn][Orn]NRPVYIPRPRPPHPRL-OH; not fully specified (residue 2)) [Api 300 (tPEG^5000-GARSG)]	17.4	0.44	uncleaved peptide remaining after the indicated time (instead of half-life) [5]: 69%
sPEG^750-GAR-VDKPPYLPRPRPHypRHypTleYNO-NH2 (sPEG750-GARVDKPPYLPRPRP[Hyp]R[Hyp][Tle]YN[Orn]-NH2) [sPEG^750-GAR-Onc 110]	24.3	9.2	uncleaved peptide remaining after the indicated time (instead of half-life) [5]: 73%
sPEG^750-GAR-VDKPPYLPRPRPPROIYNO-NH2 (sPEG750-GARVDKPPYLPRPRPPR[Orn]IYN[Orn]-NH2) [sPEG^750-GAR-Onc 72]	12.2	6.1	Half-life (t1/2) in serum ([4]; pure mouse serum, 37° C.): 360 min
tPEG^750-GAR-VDKPPYLPRPRPPROIYNO-NH2 (tPEG750-GARVDKPPYLPRPRPPR[Orn]IYN[Orn]-NH2; not fully specified; printed as tPEG^750-GAR-VDKPPYLPRPRPPROIYNO-NH2) [tPEG^750-GAR-Onc 72]	24.3		uncleaved peptide remaining after the indicated time (instead of half-life) ([4]; pure mouse serum, 6 h): 55%
